Data published in patent publication US20180243421A1, “IMMUNOSTIMULATING AGENT” (AJINOMOTO CO., INC., priority 2015, published 2018).

System: anti-OVA-specific IgG1 subclass antibody
Experiment: Adjuvant activity: anti-OVA-specific IgG1 subclass antibody in serum after secondary immunization (Examples 1, 5, 7, 8; ELISA absorbance)
Type: in vivo, BALB/c mice
Summary of the method: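 Serum was taken two weeks after the secondary immunization and assayed by ELISA on plates coated with 5 μg/ml OVA. Detection used biotinylated anti-mouse IgG1, then anti-biotin-HRP and TMB. The reaction was stopped with 2N H2SO4 and read as absorbance at 450 nm.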

SMILES: CCCCCCCCCCCCCCCC(=O)NC(=N)NCCCCN [SZ62, N-hexadecanoylagmatine]
- anti-OVA-specific IgG1 subclass antibody production as compared to the OVA single administration group (Example 1, dorsal-subcutaneous, OVA 10 μg, SZ62 0.256 μmol in 5% αCD saline, Alum 2.56 μmol, serum two weeks from secondary immunization): significantly increased
- adjuvant activity (IgG1) compared with Alum (Example 1, same test as E1): equivalent to that of Alum
- adjuvant activity (IgG1) compared with Alum (Example 5): equivalent to or not less than that of Alum
- anti-OVA-specific IgG1 subclass antibody production as compared to the OVA single administration group (Example 5, same manner as Example 1): significantly increased
- adjuvant activity (IgG1) compared with Alum (Example 8): equivalent to or not less than that of Alum
- anti-OVA-specific IgG1 subclass antibody production as compared to the OVA single administration group (Example 8, same manner as Example 7): significantly increased
